In ChEMBL document CHEMBL3885861, “Open TG-GATES”:

Organism: Rattus norvegicus
Assay: Open TG-GATES - Regimen: Daily Repeat
Type: toxicity, organism-based, Sprague-Dawley
Set-up: regimen Daily Repeat, gender Male, age 6 weeks
Conditions: in vivo, po, route gavage; for APTT / Bas / Eos / Fbg / Hb / Ht / Lym / MCH / MCHC / MCV / Mono / Neu / PT / Plat / RBC / Ret / WBC: tissue Blood; for KIDNEY_L / KIDNEY_R / KIDNEY_TOTAL: tissue Kidney; for LIVER: tissue Liver; for A/G / ALP / ALT / AST / BUN / CRE / Ca / Cl / DBIL / GLC / IP / K / LDH / Na / PL / RALB / TBIL / TC / TG / TP / gamma-GTP: tissue Plasma
[1] = 0 mg/kg, 72 h, dose level Control, time 3 day
[2] = 0 mg/kg, […], dose level Control, time 7 day
[3] = 0 mg/kg, […], dose level Control, time 14 day
[4] = 0 mg/kg, […], dose level Control, time 28 day
[5] = 3 mg/kg, 72 h, dose level Low, time 3 day
[6] = 3 mg/kg, […], dose level Low, time 7 day
[7] = 3 mg/kg, […], dose level Low, time 14 day
[8] = 3 mg/kg, […], dose level Low, time 28 day

C[C@H]1C(=O)O[C@@H]2CCN3CC=C(COC(=O)[C@](C)(O)[C@]1(C)O)[C@H]23 [MONOCROTALINE]
TERMINAL_BW [1]: 230.9 g
APTT [1]: 21.2 s
Bas [1]: 0%
Eos [1]: 0.6%
Fbg [1]: 311.8 mg/dL
Hb [1]: 13.5 g/dL
Ht [1]: 39.5%
Lym [1]: 83.8%
MCH [1]: 21.5 pg
MCHC [1]: 34.3%
MCV [1]: 62.6 fL
Mono [1]: 2%
Neu [1]: 12.4%
PT [1]: 15.8 s
Plat [1]: 119.6 x10_4/uL
RBC [1]: 631.2 x10_4/ul
Ret [1]: 6.9%
WBC [1]: 91.2 x10_2/uL
KIDNEY_L [1]: 1 g
KIDNEY_R [1]: 1 g
KIDNEY_TOTAL [1]: 2.1 g
LIVER [1]: 11 g
A/G [1]: 1.2
ALP [1]: 1771.6 IU/L
ALT [1]: 40.2 IU/L
AST [1]: 70 IU/L
BUN [1]: 18.2 mg/dL
CRE [1]: 0.2 mg/dL
Ca [1]: 10.6 mg/dL
Cl [1]: 105.6 meq/L
DBIL [1]: 0.004 mg/dL
GLC [1]: 191.4 mg/dL
IP [1]: 6.9 mg/dL
K [1]: 4.6 meq/L
LDH [1]: 222.4 IU/L
Na [1]: 142.2 meq/L
PL [1]: 164 mg/dL
RALB [1]: 3.1 g/dL
TBIL [1]: 0.008 mg/dL
TC [1]: 83.8 mg/dL
TG [1]: 119 mg/dL
TP [1]: 5.6 g/dL
gamma-GTP [1]: 1.2 IU/L
TERMINAL_BW [2]: 267 g
TERMINAL_BW [3]: 315.5 g
TERMINAL_BW [4]: 368.8 g
APTT [2]: 21 s
Bas [2]: 0%
Eos [2]: 0.8%
Fbg [2]: 309.8 mg/dL
Hb [2]: 13.3 g/dL
Ht [2]: 38.4%
Lym [2]: 80.6%
MCH [2]: 20.8 pg
MCHC [2]: 34.7%
MCV [2]: 60.2 fL
Mono [2]: 2.6%
Neu [2]: 15.2%
PT [2]: 16.6 s
Plat [2]: 111.7 x10_4/uL
RBC [2]: 638.2 x10_4/ul
Ret [2]: 6.1%
WBC [2]: 108.8 x10_2/uL
APTT [3]: 20.5 s
Bas [3]: 0%
Eos [3]: 1%
Fbg [3]: 323.2 mg/dL
Hb [3]: 14.1 g/dL
Ht [3]: 39.6%
Lym [3]: 78.4%
MCH [3]: 20.7 pg
MCHC [3]: 35.6%
MCV [3]: 58.1 fL
Mono [3]: 2.8%
Neu [3]: 16.8%
PT [3]: 16.7 s
Plat [3]: 104.7 x10_4/uL
RBC [3]: 681.6 x10_4/ul
Ret [3]: 4.5%
WBC [3]: 124 x10_2/uL
APTT [4]: 22.4 s
Bas [4]: 0%
Eos [4]: 1.2%
Fbg [4]: 314.2 mg/dL
Hb [4]: 14.7 g/dL
Ht [4]: 40.6%
Lym [4]: 82.2%
MCH [4]: 19.7 pg
MCHC [4]: 36.1%
MCV [4]: 54.6 fL
Mono [4]: 2%
Neu [4]: 13.6%
PT [4]: 16 s
Plat [4]: 102 x10_4/uL
RBC [4]: 744.4 x10_4/ul
Ret [4]: 2.6%
WBC [4]: 110.5 x10_2/uL
KIDNEY_L [2]: 1.1 g
KIDNEY_R [2]: 1.1 g
KIDNEY_TOTAL [2]: 2.2 g
KIDNEY_L [3]: 1.3 g
KIDNEY_R [3]: 1.3 g
KIDNEY_TOTAL [3]: 2.5 g
KIDNEY_L [4]: 1.3 g
KIDNEY_R [4]: 1.4 g
KIDNEY_TOTAL [4]: 2.7 g
LIVER [2]: 12.7 g
LIVER [3]: 13.3 g
LIVER [4]: 14.7 g
A/G [2]: 1.2
ALP [2]: 1469.6 IU/L
ALT [2]: 37.8 IU/L
AST [2]: 65 IU/L
BUN [2]: 18 mg/dL
CRE [2]: 0.2 mg/dL
Ca [2]: 10.7 mg/dL
Cl [2]: 105.4 meq/L
DBIL [2]: 0 mg/dL
GLC [2]: 187 mg/dL
IP [2]: 7 mg/dL
K [2]: 4.3 meq/L
LDH [2]: 182.2 IU/L
Na [2]: 142.4 meq/L
PL [2]: 156.2 mg/dL
RALB [2]: 3.1 g/dL
TBIL [2]: 0.002 mg/dL
TC [2]: 79.6 mg/dL
TG [2]: 111 mg/dL
TP [2]: 5.6 g/dL
gamma-GTP [2]: 1 IU/L
A/G [3]: 1.2
ALP [3]: 1565.6 IU/L
ALT [3]: 36 IU/L
AST [3]: 68.6 IU/L
BUN [3]: 19.4 mg/dL
CRE [3]: 0.2 mg/dL
Ca [3]: 10.8 mg/dL
Cl [3]: 105.6 meq/L
DBIL [3]: 0.002 mg/dL
GLC [3]: 194 mg/dL
IP [3]: 6.6 mg/dL
K [3]: 4.3 meq/L
LDH [3]: 217 IU/L
Na [3]: 142.4 meq/L
PL [3]: 144 mg/dL
RALB [3]: 3.2 g/dL
TBIL [3]: 0 mg/dL
TC [3]: 66.6 mg/dL
TG [3]: 148 mg/dL
TP [3]: 5.9 g/dL
gamma-GTP [3]: 1.6 IU/L
A/G [4]: 1.1
ALP [4]: 1093.2 IU/L
ALT [4]: 53 IU/L
AST [4]: 79.6 IU/L
BUN [4]: 18.8 mg/dL
CRE [4]: 0.2 mg/dL
Ca [4]: 10.6 mg/dL
Cl [4]: 106.8 meq/L
DBIL [4]: 0 mg/dL
GLC [4]: 190.2 mg/dL
IP [4]: 6.3 mg/dL
K [4]: 4.1 meq/L
LDH [4]: 176.4 IU/L
Na [4]: 141.8 meq/L
PL [4]: 152.6 mg/dL
RALB [4]: 3.2 g/dL
TBIL [4]: 0.01 mg/dL
TC [4]: 74 mg/dL
TG [4]: 160.4 mg/dL
TP [4]: 6 g/dL
gamma-GTP [4]: 1 IU/L
TERMINAL_BW [5]: 234.1 g
APTT [5]: 21.2 s
Bas [5]: 0%
Eos [5]: 0.8%
Fbg [5]: 311.8 mg/dL
Hb [5]: 13.5 g/dL
Ht [5]: 39.5%
Lym [5]: 80.2%
MCH [5]: 20.8 pg
MCHC [5]: 34%
MCV [5]: 61.2 fL
Mono [5]: 2%
Neu [5]: 16.2%
PT [5]: 15.9 s
Plat [5]: 130.1 x10_4/uL
RBC [5]: 646.2 x10_4/ul
Ret [5]: 7.1%
WBC [5]: 122.6 x10_2/uL
KIDNEY_L [5]: 1 g
KIDNEY_R [5]: 1 g
KIDNEY_TOTAL [5]: 2 g
LIVER [5]: 10.8 g
A/G [5]: 1.2
ALP [5]: 1957.6 IU/L
ALT [5]: 43.6 IU/L
AST [5]: 74.6 IU/L
BUN [5]: 16.4 mg/dL
CRE [5]: 0.1 mg/dL
Ca [5]: 10.7 mg/dL
Cl [5]: 106 meq/L
DBIL [5]: 0.002 mg/dL
GLC [5]: 187.2 mg/dL
IP [5]: 6.9 mg/dL
K [5]: 4.4 meq/L
LDH [5]: 267.2 IU/L
Na [5]: 142.8 meq/L
PL [5]: 154 mg/dL
RALB [5]: 3.2 g/dL
TBIL [5]: 0.014 mg/dL
TC [5]: 83.8 mg/dL
TG [5]: 104 mg/dL
TP [5]: 5.7 g/dL
gamma-GTP [5]: 1.2 IU/L
TERMINAL_BW [6]: 266.3 g
TERMINAL_BW [7]: 294.8 g
TERMINAL_BW [8]: 359.6 g
APTT [6]: 22.4 s
Bas [6]: 0%
Eos [6]: 0.8%
Fbg [6]: 328.2 mg/dL
Hb [6]: 13.9 g/dL
Ht [6]: 39.9%
Lym [6]: 80.4%
MCH [6]: 21.1 pg
MCHC [6]: 34.8%
MCV [6]: 60.5 fL
Mono [6]: 2.4%
Neu [6]: 15.2%
PT [6]: 16.2 s
Plat [6]: 119.7 x10_4/uL
RBC [6]: 659.4 x10_4/ul
Ret [6]: 5.7%
WBC [6]: 105.4 x10_2/uL
APTT [7]: 20.2 s
Bas [7]: 0%
Eos [7]: 0.4%
Fbg [7]: 413 mg/dL
Hb [7]: 14.3 g/dL
Ht [7]: 40.6%
Lym [7]: 81.6%
MCH [7]: 20.1 pg
MCHC [7]: 35%
MCV [7]: 57.4 fL
Mono [7]: 3.8%
Neu [7]: 12.8%
PT [7]: 16 s
Plat [7]: 120.5 x10_4/uL
RBC [7]: 708 x10_4/ul
Ret [7]: 3.3%
WBC [7]: 187.2 x10_2/uL
APTT [8]: 23 s
Bas [8]: 0%
Eos [8]: 0.8%
Fbg [8]: 332.8 mg/dL
Hb [8]: 14.1 g/dL
Ht [8]: 40.2%
Lym [8]: 84.2%
MCH [8]: 19 pg
MCHC [8]: 35.1%
MCV [8]: 54 fL
Mono [8]: 1.8%
Neu [8]: 12.4%
PT [8]: 15.4 s
Plat [8]: 102.5 x10_4/uL
RBC [8]: 745.6 x10_4/ul
Ret [8]: 4.2%
WBC [8]: 146.6 x10_2/uL
KIDNEY_L [6]: 1.1 g
KIDNEY_R [6]: 1.2 g
KIDNEY_TOTAL [6]: 2.3 g
KIDNEY_L [7]: 1.2 g
KIDNEY_R [7]: 1.2 g
KIDNEY_TOTAL [7]: 2.4 g
KIDNEY_L [8]: 1.3 g
KIDNEY_R [8]: 1.3 g
KIDNEY_TOTAL [8]: 2.6 g
LIVER [6]: 12.4 g
LIVER [7]: 13.6 g
LIVER [8]: 17.2 g
A/G [6]: 1.1
ALP [6]: 1693.8 IU/L
ALT [6]: 43.2 IU/L
AST [6]: 75 IU/L
BUN [6]: 17 mg/dL
CRE [6]: 0.2 mg/dL
Ca [6]: 10.7 mg/dL
Cl [6]: 105.6 meq/L
DBIL [6]: 0 mg/dL
GLC [6]: 187 mg/dL
IP [6]: 7 mg/dL
K [6]: 4.2 meq/L
LDH [6]: 248 IU/L
Na [6]: 142.6 meq/L
PL [6]: 151.6 mg/dL
RALB [6]: 3.1 g/dL
TBIL [6]: 0.008 mg/dL
TC [6]: 80.8 mg/dL
TG [6]: 121.8 mg/dL
TP [6]: 5.8 g/dL
gamma-GTP [6]: 1.2 IU/L
A/G [7]: 1
